We go through 32 compounds from US4150135A, “Substituted 4a-phenyl-N-phenylalkyl-cis-decahydroisoquinolines” (priority 1977, dated 1979).

Structures can show the parent of a compound that is named as a salt.

System in the first assay: not given
Test: not given
The note with it: J. Am. Chem. Soc. 72, 712 (1950); cited from earlier work.
Turning to `CN1CC[C@]2(c3ccccc3)CCCC[C@@H]2C1` (relative stereo) [N-Methyl-4a-phenyl-cis-decahydroisoquinoline], the analgesic activity entry is reported as “low analgesic activity”.

A further assay concerns mice (phenylquinone-induced stretching or writhing syndrome). The assay can be described thus: standard phenylquinone writhing test (PQW), oral analgesia in mice. The note with it: Mus musculus, po, read-out: PQW ED50. The class given is in vivo, female white mice. The procedure:
A standard procedure for detecting and comparing the analgesic activity of compounds in this series for which there is good correlation with human efficacy is the standard phenylquinone writhing test (PQW) modified from Siegmund, et al., Proc. Soc. Exp. Biol. Med. 95, 729 (1957). A test compound suspended in 1% methylcellulose was given orally to fasted (17-21 hours) female white mice, 5-20 animals per dose in a double blind test. Aqueous (0.01% phenyl-p-benzoquinone) phenylquinone was injected intraperitoneally at 23 or 30 minutes later using 0.20 ml per mouse. […] The effective analgesic dose for 50% of the mice (ED 50) was calculated by the moving average method of Weil, Biometrics 8, 249 (1952).
(In general: Writhing tests count abdominal constrictions after an irritant is injected.)
For orientation: ED50 means the midpoint of the dose-response relation. As to `CN1CC[C@]23c4c5ccc(O)c4O[C@H]2[C@@H](O)C=C[C@H]3[C@H]1C5` [Morphine H2 SO4, reference compound], the ED50 came out at 1.6 mg/kg.

The assay is the same for the next values; noted with them: Mus musculus, po; mice; phenylquinone i.p.; effective analgesic dose for 50% of the mice (Table II); read-out: PQW ED50.
As to `COc1cccc(C23CCCCC2CN(CC2CC2)CC3)c1` (stereo not drawn), the 50% effective dose (ED50) came out at 14 mg/kg.

Regarding `Oc1cccc(C23CCCCC2CN(CC2CC2)CC3)c1` (stereo not drawn), the ED50 turned out to be 20 mg/kg.

Take `COc1cccc(C23CCCCC2CN(CC2CCC2)CC3)c1` (stereo not drawn): the ED50 is 18.5 mg/kg.

Consider `Oc1cccc(C23CCCCC2CN(CC2CCC2)CC3)c1` (stereo not drawn), for which the ED50 was 20 mg/kg.

For `COc1cccc(C23CCCCC2CN(CCc2ccccc2)CC3)c1` (stereo not drawn), the 50% effective dose (ED50) came to 14.5 mg/kg.

For the compound `Oc1cccc(C23CCCCC2CN(CCc2ccccc2)CC3)c1` (stereo not drawn), the ED50 worked out at 21 mg/kg.

As to `COc1cccc(C23CCCCC2CN(CCc2ccc(F)cc2)CC3)c1` (stereo not drawn), the ED50 came out at 33 mg/kg.

For the compound `Oc1cccc(C23CCCCC2CN(CCc2ccc(Cl)cc2)CC3)c1` (stereo not drawn), the ED50 is 28 mg/kg.

For `COc1cccc(C23CCCCC2CN(CCc2ccc(Cl)cc2)CC3)c1` (stereo not drawn), the ED50 is 16 mg/kg.

Consider `Cc1ccc(CCN2CCC3(c4cccc(O)c4)CCCCC3C2)cc1` (stereo not drawn), for which the 50% effective dose (ED50) was determined as 9.7 mg/kg.

`COc1cccc(C23CCCCC2CN(CCc2ccc(C)cc2)CC3)c1` (stereo not drawn): the ED50 came out at 11 mg/kg.

Take `COc1cccc(C23CCCCC2CN(CCc2ccc(N(C)C)cc2)CC3)c1` (stereo not drawn): the median effective dose (ED50) came to 15.1 mg/kg.

Take `COc1cccc(C23CCCCC2CN(CCc2ccco2)CC3)c1` (stereo not drawn): the median effective dose (ED50) amounted to 25 mg/kg.

Consider `Oc1cccc(C23CCCCC2CN(CCc2cccs2)CC3)c1` (stereo not drawn), for which the ED50 is 24 mg/kg.

Turning to `COc1cccc(C23CCCCC2CN(CCc2cccs2)CC3)c1` (stereo not drawn), the ED50 is 27 mg/kg.

For the compound `CC(=O)Oc1cccc(C23CCCCC2CN(CCc2cccs2)CC3)c1` (stereo not drawn), the ED50 was 27 mg/kg.

For the compound `CC(C)=CCN1CC[C@]2(c3cccc(O)c3)CCCC[C@@H]2C1` (relative stereo) [CH2CHC(CH3)2 m-OH, N-(3,3-Dimethylallyl)-4a-(m-hydroxyphenyl)-cis-decahydroisoquinoline], the ED50 was determined as 40 mg/kg.

As to `C=CCN1CC[C@]2(c3cccc(O)c3)CCCC[C@@H]2C1` (relative stereo) [CH2CHCH2 m-OH, N-Allyl-4a-(m-hydroxyphenyl)-cis-decahydroisoquinoline], the median effective dose (ED50) turned out to be 43 mg/kg.

On to `CN1CC[C@]2(c3ccc(F)cc3)CCCC[C@@H]2C1` (relative stereo) [CH3 p-F, N-methyl-4a-(p-fluorophenyl)-cis-decahydroisoquinoline], for which the median effective dose (ED50) stood at 26 mg/kg.

In the case of `CC(=O)Oc1ccccc1C(=O)O` [Aspirin, reference compound], the ED50 is 109 mg/kg.

On to `CCCCCN1CCC2(c3cccc(OC)c3)CCCCC2C1` (stereo not drawn) [C5 H11 m-OCH3], for which the median effective dose (ED50) was 20 mg/kg.

As for `CN1CCC2(c3cccc(O)c3)CCCCC2C1` (stereo not drawn) [CH3 m-OH], the ED50 was 2.9 mg/kg.

For `COc1ccc2c3c1O[C@H]1[C@@H](O)C=C[C@H]4[C@@H](C2)N(C)CC[C@@]341` [Codeine H3 PO4, reference compound], the 50% effective dose (ED50) is 8 mg/kg.

`Oc1ccc2c3c1O[C@H]1[C@@H](O)CC[C@@]4(O)[C@@H](C2)N(CC2CCC2)CC[C@]314` [Nalbuphine HCl, reference compound]: the ED50 came to 8.4 mg/kg.

As for `CC(C)=CCN1CCC2(C)c3cc(O)ccc3CC1C2C.Cl` (stereo not drawn) [Pentazocine HCl, reference compound], the ED50 was found to be 57 mg/kg.

The assay is the same for the next values; noted with them: Mus musculus, po; mouse (Table III, additional compounds); read-out: Mouse ED50 Analgesia (PQW)-Oral.
`COc1cccc(C23CCN(CCc4ccc(C)cc4)CC2CCC(C)C3)c1` (stereo not drawn) [Example 20-G, N-(p-Tolylethyl)-4a-m-methoxyphenyl-6β-methyl-cis-decahydroisoquinoline]: the median effective dose (ED50) was determined as 28 mg/kg.

Turning to `CC1CCC2CN(CC3CCC3)CCC2(c2cccc(O)c2)C1` (stereo not drawn) [Example 22-C, N-Cyclobutylmethyl-4a-m-hydroxyphenyl-6β-methyl-cis-decahydroisoquinoline], the ED50 was found to be 54 mg/kg.

Consider `COc1cccc(C23CCN(C)CC2CCC(C)C3)c1` (stereo not drawn) [Example 23, N-Methyl-4a-m-methoxyphenyl-6β-methyl-cis-decahydroisoquinoline], for which the ED50 amounted to 3.5 mg/kg.

Consider `CC1CCC2CN(CCc3ccccc3)CCC2(c2cccc(O)c2)C1` (stereo not drawn) [Example 27-C, N-Phenethyl-4a-m-hydroxyphenyl-6β-methyl-cis-decahydroisoquinoline], for which the ED50 stood at 10.8 mg/kg.

For `COc1cccc(C23CCN(Cc4ccco4)CC2CCC(C)C3)c1` (stereo not drawn) [Example 28, N-(2-Furylmethyl)-4a-m-methoxyphenyl-6β-methyl-cis-decahydroisoquinoline], the median effective dose (ED50) worked out at 61 mg/kg.

The same assay, now with this note: oral; mouse (Table III, additional compounds).
As to `COc1cccc(C23CCN(CCc4ccc(C)cc4)CC2CCC(C)C3)c1` (stereo not drawn) [Example 20-G, N-(p-Tolylethyl)-4a-m-methoxyphenyl-6β-methyl-cis-decahydroisoquinoline], the “Mouse ED50 Analgesia (PQW)-Oral” value was found to be 22 mg/kg.
